Experimental data taken from US10220092B2, “Devices, systems and methods for optogenetic modulation of action potentials in target cells” (The Board of Trustees of the Leland Stanford Junior …, priority 2013, dated 2019).

What was measured:
[1] = tested on: acid-sensing ion channels (ASICs); assay: Pharmacological blockade of the ChR2 bystander current by the ASIC inhibitor amiloride; type: cell-based, mice
Method: Whole cell patch clamp recordings on cortical and hippocampus neurons were performed on an upright Leica DM-LFSA microscope. Slices were continually perfused in warmed (33° C.) ACSF at a rate of 7 ml min^−1 Patching was performed in the presence of synaptic transmission blockers 6-cyano-7-nitroquinoxaline-2,3-dione (CNQX, 50 μM) and D(−)-2-amino-5-phosphonovaleric acid (APV, 25 μM) and gabazine (25 μM) (Tocris Bioscience) except for during testing of electrically-evoked synaptic responses. For amiloride experiments, amiloride was added to the ACSF at a concentration of 500 μM (Tocris). Borosilicate glass (Sutter Instruments) pipette resistances were pulled to 3-6 MΩ and filled with potassium gluconate intracellular solution (130 mM K Gluconate, 10 mM KCl, 10 mM HEPES, 10 mM EGTA, 2 mM MgCl2, pH adjusted with KOH to 7.3). Voltage and current clamp electrophysiological recordings and manipulations were performed using pClamp (Axon Instruments). Cells were held at −70 mV for all experiments. Cells with leak current greater than −300 pA or pipette resistance greater than 30 MΩ were excluded. […]

[2] = tested on: cultured hippocampal neurons; assay: Whole cell patch clamp of cultured hippocampal neurons expressing eArch3.0-ASIC2a (Champ) constructs; type: cell-based, rat
Source text: Construct design for hippocampal neurons: The protein sequence of rat ASIC2a (Genbank accession number NM_001034014.1) was human codon optimized and synthesized by Genscript. eArch3.0 and ASIC-YFP fusions were cloned into an AAV2 backbone either under a CaMKIIα or human synapsin promoter. The trafficking signal (TS) and endoplasmic reticulum export signal (ER) sequences were appropriately added to enhance membrane trafficking. All maps and sequence details are on the website: www(dot)optogenetics(dot)org.
Hippocampal neuron culture and calcium phosphate transfection (as per Mattis et al. (Nat Methods 2011; 9: 159-72)). Primary cultured hippocampal neurons were prepared from PO Sprague-Dawley rat pups (Charles River). CA1 and CA3 were isolated, digested with 0.4 mg ml^−1 papain (Worthington), and plated onto glass coverslips precoated with 1:30 Matrigel (Becton Dickinson Labware). […]
Electrophysiological recordings in cultured hippocampal neurons: Whole cell patch clamp recordings were performed on cultured hippocampal neurons 4-8 days post-transfection on an upright Leica DM-LFSA microscope (Mattis et al, 2011). […] Data acquisition, current and light manipulations were controlled using pClamp (Axon Instruments) via a Digidata 1440A interface and analyzed using ClampFit software (Axon Instruments). […]

Xenopus laevis oocytes = assay: Two-electrode voltage clamp of CsR proton pump co-expressed with rat ASICs in oocytes; type: cell-based; conditions: co-expressed with CsRT46N; 560 nm, 0.1 mM MOPS, pH 7.5
Method: Two-component optogenetics experiments. Construct design and expression in Xenopus laevis oocytes: The coding sequences for rat ASICs (in pRSSP6009) were provided by Stefan Grander (Aachen). The pRSSP6009 plasmid coding for ASICs and the pGEM plasmid coding for Coccomyxa subellipsoidea C-169 Rhodopsin CsRT46N were linearized by MulI site in pRSSP 6009 and by NheI in pGEM. After transcription into RNA using T7 (pGEM) or SP6 (pRSSP6009) mMessage mMachine Kit (Ambion Inc, Texas, USA) 32 ng of capped RNA encoding CsR pump and one type of ASIC were co-injected into Xenopus leavis oocytes with a molar ratio of 1:1 pump:channel for ASIC1 and ASIC2a and a molar ratio of 1:2 for ASIC3. Oocytes were incubated for 3 days at 18° C. in ORI solution with 1 μM all-trans retinal (Tsunoda & Hegemann, 2009).
Two-electrode voltage clamp measurements: TEVC measurements on X. laevis oocytes were performed using a GeneClamp 500 amplifier (Axon Instruments, Union City). Data acquisition, buffer exchange and light triggering were controlled with pClamp software via a Digidata 1322A interface (Molecular Devices, Sunnyvale). […] For pH titration, buffer solutions were adjusted with 5 mM MOPS/MES/Citrate over the range of pH 8.0 to 4.0, and were subsequently compared with photocurrents measured at 0.1 mM MOPS at pH 7.5

N=C(N)NC(=O)c1nc(Cl)c(N)nc1N [amiloride]
Magnitude of light-evoked bystander current, relative to baseline value ([1]; 500 μM amiloride applied for 20 minutes, hippocampal ChR2 bystander neurons, 15 s light pulse): ~50%
Membrane resistance during amiloride application ([1]; 500 μM amiloride, absence of any illumination): increase in membrane resistance

Champ4.0: eArch3.0 and ASIC2a separated during protein translation by the ribosomal skip sequence p2A; SEQ ID NO:34
Presence and reliability of the inward ASIC-mediated current component ([2]; head-to-head comparison, increasing molecular separation, 0.1 mM buffer): occasionally saw large ASIC currents
Cell health measures (leak current, membrane resistance, pipette resistance, resting membrane potential) across groups ([2]; one-way ANOVA across 5 groups): no significant differences

B1: ASIC3: rat acid-sensing ion channel co-expressed with CsR in oocytes (protein, UniProt O35240 1-533, looked up)
Acid-sensing ion channel 3: MKPRSGLEEAQRRQASDIRVFASSCTMHGLGHIFGPGGLTLRRGLWATAVLLSLAAFLYQVAERVRYYGEFHHKTTLDERESHQLTFPAVTLCNINPLRRSRLTPNDLHWAGTALLGLDPAEHAAYLRALGQPPAPPGFMPSPTFDMAQLYARAGHSLEDMLLDCRYRGQPCGPENFTVIFTRMGQCYTFNSGAHGAELLTTPKGGAGNGLEIMLDVQQEEYLPIWKDMEETPFEVGIRVQIHSQDEPPAIDQLGFGAAPGHQTFVSCQQQQLSFLPPPWGDCNTASLDPDDFDPEPSDPLGSPRPRPSPPYSLIGCRLACESRYVARKCGCRMMHMPGNSPVCSPQQYKDCASPALDAMLRKDTCVCPNPCATTRYAKELSMVRIPSRASARYLARKYNRSESYITENVLVLDIFFEALNYEAVEQKAAYEVSELLGDIGGQMGLFIGASLLTILEILDYLCEVFQDRVLGYFWNRRSAQKRSGNTLLQEELNGHRTHVPHLSLGPRPPTTPCAVTKTLSASHRTCYLVTRL
Inactivation in sustained light (Xenopus laevis oocytes): strong inactivation
